Test results taken from patent US8188085B2, “Antifungal agents” (Merck Sharp & Dohme Corp., priority 2008, dated 2012).

biological target: glucan synthase (GS) prepared from Candida albicans MY1055 (Candida albicans, UniProt O13428); assay: Glucan synthase inhibition (polymerization assay, 96-well); assay type: biochemical; conditions: GS from C. albicans MY1055; 60 min incubation at 22° C.; read-out: Candida Albicans GS IC50 (converted)
Procedure: The in vitro evaluation of glucan synthase inhibitory activity of compounds was measured in a polymerization assay in 96-well format. Each well contained 100 μL of ^3H-UDPG at 0.5 mM (6000 to 8000 dpm/nmol), 50 mM HEPES pH 7.5 (Sigma), 10% w/v glycerol (Sigma), 1.5 mg/mL bovine serum albumin (Sigma A 9647. Lot 44H0190), 25 mM KF (Fisher), 1 mM EDTA (Gibco ULTRAPURE), 25 μM GTP-γ-S, enzyme sufficient to give 3 to 6 nmoles incorporation during the 60 min incubation at 22° C., and test compound added from wells in 3-fold serial dilutions in 100% DMSO (1 μL/well). The reaction was stopped by the addition of 100 μL of 20% trichloroacetic acid. Plates were chilled for a minimum of 10 min, and precipitated glucan collected by filtration on GF/C plates (Packard UNIFILTER®-96), washed with 5 cycles of water (about 1 mL/well each cycle) using a Packard FILTERMATE HARVESTER. 40 μL/well scintillation fluid (Packard ULTIMA GOLD TM-XR) was added and the sealed plates counted in a WALLAC BETA counter in top-counting mode at an efficiency of approximately 40%.
Stock solutions were stored at 10 mg/mL in DMSO at −20° C. For each new enzyme preparation, the initial titration performed started at 1 mg/mL, which was prepared by making a 10-fold dilution in DMSO (5 μL to 50 μL). 40 μL of this stock was placed in column 12 of a round-bottomed 96-well microtiter plate. 40 μL DMSO was added to columns 1 to 11 in the same row and ten 3-fold serial dilutions performed, by transferring 20 μL from column 12 to column 11 etc., with 4 mixings before each transfer. No test compound was transferred to from column 2 to column 1. Duplicate aliquots of 1 μL of all 12 dilutions were then transferred to the side walls of a 96-well Bioblock 1.1 mL plate (Fisher brand) to create two rows.
Graphs of the primary data were created in PRISM software (the average of two determinations) using PRISM's curve fitting program (sigmoidal dose response non-linear regression). The amount of compound required to inhibit glucan synthase activity by 50% in this assay (IC50−ng/mL) was calculated.
Routine analysis was performed with glucan synthase (GS) prepared from Candida albicans MY1055 by the following procedure: MY1055 was grown in 10 liters YPD medium (10 g yeast extract, 20 g tryptone, 20 g glucose per liter) with vigorous shaking at 30° C., to early stationary phase. Cells were harvested by centrifugation, the pellet was washed and frozen at −70° C. until breakage. Thawed pellets were shaken with an equal volume of breakage buffer (50 mM HEPES pH 7.4, 10% glycerol, 1 mM EDTA, 1 mM PMSF, 1 mM DTT) and 4 times their weight of 0.5 mm acid washed glass beads for 2 hours at 4° C. Extent of breakage was assessed visually at 40× magnification. After low speed centrifugation to remove cell debris, the supernatant was centrifuged at 100,000×g for 60 min. to separate membranes plus ribosomes from cytoplasmic components. Membranes were further washed two additional times with breakage buffer using the same centrifugation conditions and finally suspended in breakage buffer at 25 to 30 mg/mL protein (Biorad) for storage at −70° C. Extraction of GS activity from membranes was performed at a protein concentration of 5 mg/mL in extraction buffer (50 mM NaPO4 pH 7.5, 0.1 M KCl, 0.1M Na citrate, 20% glycerol, 5 μM GTP-γ-S, 1 mM DTT, 1 mM PMSF, 3 μg/mL pepstatin) plus 0.25% W1 by gentle mixing at 4° C. for 60 min, followed by centrifugation at 100,000×g for 60 min. After centrifugation, clear supernatant was removed from a pellet consisting of a hard layer usually with small amounts of gelatinous unextracted membranes above it.
Trapping was initiated immediately by 5-fold dilution in trapping buffer (50 mM HEPES pH 7.5, 10 mM KF, 1 mM EDTA, 2 mg/mL BSA) plus 2.5 mM UDPG and 10 μM GTP-γ-S. After incubation at 25° C. for 60 to 90 minutes, glucan was harvested by low speed centrifugation (3,000×g, 10 min). […]

glucan synthase (GS) prepared from Candida albicans MY1055, sequence (O13428 1-1897): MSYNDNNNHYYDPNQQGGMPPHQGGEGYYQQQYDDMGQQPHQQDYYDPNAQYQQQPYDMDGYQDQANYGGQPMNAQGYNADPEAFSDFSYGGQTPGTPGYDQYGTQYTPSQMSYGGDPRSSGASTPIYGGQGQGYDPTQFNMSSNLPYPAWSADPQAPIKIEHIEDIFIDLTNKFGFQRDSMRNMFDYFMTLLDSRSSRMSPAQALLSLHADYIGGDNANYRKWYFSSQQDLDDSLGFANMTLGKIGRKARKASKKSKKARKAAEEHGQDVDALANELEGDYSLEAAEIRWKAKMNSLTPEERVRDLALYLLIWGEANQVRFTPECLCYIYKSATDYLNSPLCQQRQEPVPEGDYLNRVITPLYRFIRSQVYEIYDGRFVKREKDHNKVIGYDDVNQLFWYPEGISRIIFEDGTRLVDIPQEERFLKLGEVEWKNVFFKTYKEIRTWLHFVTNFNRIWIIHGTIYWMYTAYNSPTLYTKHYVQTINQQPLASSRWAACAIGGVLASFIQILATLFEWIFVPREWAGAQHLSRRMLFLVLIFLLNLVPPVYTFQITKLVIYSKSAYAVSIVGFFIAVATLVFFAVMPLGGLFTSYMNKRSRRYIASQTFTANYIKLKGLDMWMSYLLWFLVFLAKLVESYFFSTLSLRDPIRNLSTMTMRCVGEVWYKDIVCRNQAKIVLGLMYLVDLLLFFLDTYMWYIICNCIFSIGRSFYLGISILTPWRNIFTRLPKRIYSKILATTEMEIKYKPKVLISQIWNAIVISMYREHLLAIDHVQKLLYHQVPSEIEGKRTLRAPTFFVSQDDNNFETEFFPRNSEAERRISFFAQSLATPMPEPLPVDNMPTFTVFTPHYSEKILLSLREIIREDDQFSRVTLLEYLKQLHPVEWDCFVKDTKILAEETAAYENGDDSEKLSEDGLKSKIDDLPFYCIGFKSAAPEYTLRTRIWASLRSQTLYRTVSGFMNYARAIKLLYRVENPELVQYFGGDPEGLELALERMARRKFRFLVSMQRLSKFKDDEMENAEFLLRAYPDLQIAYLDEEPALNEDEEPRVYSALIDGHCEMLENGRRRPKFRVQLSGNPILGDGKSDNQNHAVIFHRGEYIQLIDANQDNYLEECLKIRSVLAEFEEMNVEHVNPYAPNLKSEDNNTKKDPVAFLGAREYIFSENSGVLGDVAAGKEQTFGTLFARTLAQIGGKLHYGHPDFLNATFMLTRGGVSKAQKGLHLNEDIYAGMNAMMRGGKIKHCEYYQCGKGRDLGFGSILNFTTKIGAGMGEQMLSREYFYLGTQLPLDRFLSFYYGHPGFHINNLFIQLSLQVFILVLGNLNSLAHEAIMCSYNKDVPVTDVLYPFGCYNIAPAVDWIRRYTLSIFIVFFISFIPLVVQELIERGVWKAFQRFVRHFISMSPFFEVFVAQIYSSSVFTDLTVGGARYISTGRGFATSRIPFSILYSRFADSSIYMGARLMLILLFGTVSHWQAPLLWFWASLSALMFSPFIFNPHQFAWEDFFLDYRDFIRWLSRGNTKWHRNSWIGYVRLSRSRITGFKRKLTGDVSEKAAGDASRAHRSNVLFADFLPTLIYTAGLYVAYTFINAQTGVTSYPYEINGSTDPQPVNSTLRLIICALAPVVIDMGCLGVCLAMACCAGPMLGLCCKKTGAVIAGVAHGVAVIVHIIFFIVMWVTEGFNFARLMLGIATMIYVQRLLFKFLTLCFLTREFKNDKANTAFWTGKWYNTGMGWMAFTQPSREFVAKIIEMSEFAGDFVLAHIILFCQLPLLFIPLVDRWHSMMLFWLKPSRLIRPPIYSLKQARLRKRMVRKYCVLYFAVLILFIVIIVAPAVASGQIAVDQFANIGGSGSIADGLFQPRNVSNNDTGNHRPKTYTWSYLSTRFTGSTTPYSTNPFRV

Compound	IC50 [nM]
CC(C)[C@@H](C)[C@@]1(C)CC[C@]2(C)[C@H]3CC[C@@H]4[C@@]5(COC[C@@]4(C)[C@@H](OC[C@](C)(N)C(C)(C)C)[C@H](n4ncnc4Br)C5)C3=CC[C@@]2(C)[C@@H]1C(=O)O [Example 11, (1S,4aR,6aS,7R,8R,10aR,10bR,12aR,14R,15R)-15-[[(2R)-2-amino-2,3,3-trimethylbutyl]oxy]-14-(5-bromo-1H-1,2,4-triazol-1-yl)-8-[(1R)-1,2-dimethylpropyl]-1,6,6a,7,8,9,10,10a,10b,11,12,12a-dodecahydro-1,6a,8,10a-tetramethyl-4H-1,4a-propano-2H-phenanthro[1,2-c]pyran-7-carboxylic acid]	4.1
CNC1(CO[C@H]2[C@H](n3ncnc3Cl)C[C@@]34COC[C@]2(C)[C@@H]3CC[C@H]2C4=CC[C@@]3(C)[C@H](C(=O)O)[C@@](C)([C@H](C)C(C)C)CC[C@]23C)CCOCC1 [Example 14, (1S,4aR,6aS,7R,8R,10aR,10bR,12aR,14R,15R)-14-(5-chloro-1H-1,2,4-triazol-1-yl)-8-[(1R)-1,2-dimethylpropyl]-15-[[tetrahydro-4-(methylamino)-2H-pyran-4-yl]methoxy]-1,6,6a,7,8,9,10,10a,10b,11,12,12a-dodecahydro-1,6a,8,10a-tetramethyl-4H-1,4a-propano-2H-phenanthro[1,2-c]pyran-7-carboxylic acid]	7.13
CNC1(CO[C@H]2[C@H](n3cncn3)C[C@@]34COC[C@]2(C)[C@@H]3CC[C@H]2C4=CC[C@@]3(C)[C@H](C(=O)O)[C@@](C)([C@H](C)C(C)C)CC[C@]23C)CCCCC1 [Example 16, (1S,4aR,6aS,7R,8R,10aR,10bR,12aR,14R,15R)-8-[(1R)-1,2-dimethylpropyl]-15-[[1-(methylamino)cyclohexyl]methoxy]-14-(1H-1,2,4-triazol-1-yl)-1,6,6a,7,8,9,10,10a,10b,11,12,12a-dodecahydro-1,6a,8,10a-tetramethyl-4H-1,4a-propano-2H-phenanthro[1,2-c]pyran-7-carboxylic acid]	33.1
CC(C)[C@@H](C)[C@@]1(C)CC[C@]2(C)[C@H]3CC[C@@H]4[C@@]5(COC[C@@]4(C)[C@@H](OC[C@@](C)(C(C)C)N(C)C)[C@H](n4cncn4)C5)C3=CC[C@@]2(C)[C@@H]1C(=O)O [Example 18, (1S,4aR,6aS,7R,8R,10aR,10bR,12aR,14R,15R)-15-[[(2R)-2-(dimethylamino)-2,3-dimethylbutyl]oxy]-8-[(1R)-1,2-dimethylpropyl]-14-(1H-1,2,4-triazol-1-yl)-1,6,6a,7,8,9,10,10a,10b,11,12,12a-dodecahydro-1,6a,8,10a-tetramethyl-4H-1,4a-propano-2H-phenanthro[1,2-c]pyran-7-carboxylic acid]	12
CC(C)[C@@H](C)[C@@]1(C)CC[C@]2(C)[C@H]3CC[C@@H]4[C@@]5(COC[C@@]4(C)[C@@H](OC[C@H](N)C(C)(C)C)[C@H](n4cnc(N)n4)C5)C3=CC[C@@]2(C)[C@@H]1C(=O)O [Example 24, (1S,4aR,6aS,7R,8R,10aR,10bR,12aR,14R,15R)-15-[[(2R)-2-amino-3,3-dimethylbutyl]oxy]-14-(3-amino-1H-1,2,4-triazol-1-yl)-8-[(1R)-1,2-dimethylpropyl]-1,6,6a,7,8,9,10,10a,10b,11,12,12a-dodecahydro-1,6a,8,10a-tetramethyl-4H-1,4a-propano-2H-phenanthro[1,2-c]pyran-7-carboxylic acid]	16.8
CC(C)[C@@H](C)[C@@]1(C)CC[C@]2(C)[C@H]3CC[C@@H]4[C@@]5(COC[C@@]4(C)[C@@H](OC[C@](C)(C(C)C)N(C)C)[C@H](n4cnc(N)n4)C5)C3=CC[C@@]2(C)[C@@H]1C(=O)O [Example 27, (1S,4aR,6aS,7R,8R,10aR,10bR,12aR,14R,15R)-14-(3-amino-1H-1,2,4-triazol-1-yl)-15-[[(2S)-2-(dimethylamino)-2,3-dimethylbutyl]oxy]-8-[(1R)-1,2-dimethylpropyl]-1,6,6a,7,8,9,10,10a,10b,11,12,12a-dodecahydro-1,6a,8,10a-tetramethyl-4H-1,4a-propano-2H-phenanthro[1,2-c]pyran-7-carboxylic acid]	16.1
CC(C)[C@@H](C)[C@@]1(C)CC[C@]2(C)[C@H]3CC[C@@H]4[C@@]5(COC[C@@]4(C)[C@@H](OC[C@](C)(N)C(C)C)[C@H](n4ncnc4N)C5)C3=CC[C@@]2(C)[C@@H]1C(=O)O [Example 31, (1S,4aR,6aS,7R,8R,10aR,10bR,12aR,14R,15R)-15-[[(2R)-2-amino-2,3-dimethylbutyl]oxy]-14-(5-amino-1H-1,2,4-triazol-1-yl)-8-[(1R)-1,2-dimethylpropyl]-1,6,6a,7,8,9,10,10a,10b,11,12,12a-dodecahydro-1,6a,8,10a-tetramethyl-4H-1,4a-propano-2H-phenanthro[1,2-c]pyran-7-carboxylic acid]	15.3
CC(C)[C@@H](C)[C@@]1(C)CC[C@]2(C)[C@H]3CC[C@@H]4[C@@]5(COC[C@@]4(C)[C@@H](OC[C@](C)(N)C(C)C)[C@H](n4nc(Cl)nc4Cl)C5)C3=CC[C@@]2(C)[C@@H]1C(=O)O [Example 34, (1S,4aR,6aS,7R,8R,10aR,10bR,12aR,14R,15R)-15-[[(2R)-2-amino-2,3-dimethylbutyl]oxy]-14-(3,5-dichloro-1H-1,2,4-triazol-1-yl)-8-[(1R)-1,2-dimethylpropyl]-1,6,6a,7,8,9,10,10a,10b,11,12,12a-dodecahydro-1,6a,8,10a-tetramethyl-4H-1,4a-propano-2H-phenanthro[1,2-c]pyran-7-carboxylic acid]	46.6
CC(C)[C@@H](C)[C@@]1(C)CC[C@]2(C)[C@H]3CC[C@@H]4[C@@]5(COC[C@@]4(C)[C@@H](OC[C@](C)(N)C(C)C)[C@H](n4nc(N)nc4-c4ccccc4)C5)C3=CC[C@@]2(C)[C@@H]1C(=O)O [Example 36, (1S,4aR,6aS,7R,8R,10aR,10bR,12aR,14R,15R)-15-[[(2R)-2-amino-2,3-dimethylbutyl]oxy]-14-(3-amino-5-phenyl-1H-1,2,4-triazol-1-yl)-8-[(1R)-1,2-dimethylpropyl]-1,6,6a,7,8,9,10,10a,10b,11,12,12a-dodecahydro-1,6a,8,10a-tetramethyl-4H-1,4a-propano-2H-phenanthro[1,2-c]pyran-7-carboxylic acid]	13.7
CN[C@@](C)(CO[C@H]1[C@H](n2ncnc2C(=O)NC(C)C)C[C@@]23COC[C@]1(C)[C@@H]2CC[C@H]1C3=CC[C@@]2(C)[C@H](C(=O)O)[C@@](C)([C@H](C)C(C)C)CC[C@]12C)C(C)C [Example 38, (1S,4aR,6aS,7R,8R,10aR,10bR,12aR,14R,15R)-15-[[(2R)-2,3-dimethyl-2-(methylamino)butyl]oxy]-8-[(1R)-1,2-dimethylpropyl]-14-[5-[[(1-methylethyl)amino]carbonyl]-1H-1,2,4-triazol-1-yl]-1,6,6a,7,8,9,10,10a,10b,11,12,12a-dodecahydro-1,6a,8,10a-tetramethyl-4H-1,4a-propano-2H-phenanthro[1,2-c]pyran-7-carboxylic acid]	17.6
